In patent US9949960B2, “Pharmaceutical composition for preventing or treating muscle weakness-related diseases, containing butylpyridinium or derivative thereof” (KOREA RESEARCH INSTITUTE OF BIOSCIENCE AND BIOTECHNOLOGY, priority 2014, dated 2018):

Assays:
C2C12 myoblast cell line [1] = assay: Western blot of MYH3 protein in differentiating C2C12 cells; assay type: cell-based, mouse; conditions: 0.2 μM every day, third day of differentiation, vs DMSO control; FIG. 3
Experimental: The cells were harvested on the third day of differentiation and centrifuged at 1200 rpm for 3 minutes. After adding 100 μL of a lysis buffer to the cells, the cells were sonicated and centrifuged at 3000 rpm for 10 minutes to obtain a water-soluble protein, and after adding a 4× sample buffer, the cells were reacted in boiling water for 5 minutes.
10 μg of the protein was loaded on a 12% SDS-PAGE gel and developed, and then was transferred onto a nitrocellulose membrane. The nitrocellulose membrane was blocked in 5% skim milk for 1 hour at room temperature and washed 5 times with TTBS (0.03% Tween 20, Tris 2.42 g, NaCl 9 g, pH 7.4, and 1 L) for 5 minutes each. The primary antibody was diluted in TTBS containing 5% skim milk at a ratio of 1:500 and was added to the nitrocellulose membrane, and after reacting at room temperature for 2 hours, the nitrocellulose membrane was again washed 5 times with TTBS for 5 minutes each. The secondary antibody was diluted at a ratio of 1:5000 again in TTBS containing 5% skim milk and added, was reacted at room temperature for 2 hours, was washed with TTBS 5 times for 5 minutes each, and ECL (Enhanced Chemiluminescent solution, Pierce) was added. Thereafter, the membrane was exposed to X-ray film, and the amount of the protein was measured.

C2C12 myoblast cell line [2] = assay: Immunocytochemistry of MYH3 expression in differentiating C2C12 cells; assay type: cell-based, mouse; conditions: 0.2 μM, third day of differentiation; FIG. 2
Experimental: (§1) The DMSO, cetylpyridinium chloride, butylpyridinium chloride, and dodecylpyridinium chloride used in the experiment were all purchased from Sigma-Aldrich.
C2C12 cells on a cover glass coated with 0.1% gelatin were differentiated for 3 days. After washing the cells with 1×PBS, fixing with 3.7% paraformaldehyde at room temperature for 15 minutes, and washing 3 times with 1×PBS, a permeabilization buffer was added, and the cells were reacted at room temperature for 15 minutes. After washing the cells three times with 1×PBS again, the cells were reacted for 30 minutes with PBST (blocking buffer, PBS containing 0.5% Tween 20) containing 1% BSA to deter any unspecific binding of antibodies. The primary antibody against MYH3 (SC-20641, Santa Cruz Biotechnology) was added to the blocking buffer by diluting at a ratio of 1:500 and was reacted at room temperature for 1 hour. After washing the cells three times with 1×PBS, the secondary antibody (Goat anti-Rabbit IgG-HRP), which was diluted in the blocking buffer at a ratio of 1:5000, was added and reacted at room temperature for 1 hour, and the cells were washed three times with 1×PBS. The cover glass was placed on a slide glass, photographs were taken with a fluorescence microscope, and the results were analyzed.

C2C12 myoblast cell line [3] = assay: Myotube formation of C2C12 cells observed under phase contrast microscopy; assay type: cell-based, mouse; conditions: 0.2 μM, 3 days differentiation, compared to DMSO control; FIG. 1
Experimental: C2C12 is a cell line of myoblasts obtained from a C3H strain live mouse, and it is widely used in the differentiation studies of myoblasts.
The above-described C2C12 cells were cultured in each of general media for cell growth and media for differentiation. In the normal cell growth media (GM), DMEM supplemented with 10% fetal bovine serum was used, and in the differentiation media (DM), DMEM containing 2% horse blood serum was used.
as §1

[4] = tested on: C57BL/6 male mice, muscle immobilization model; assay: Rota-rod test after tibialis anterior muscle immobilization; assay type: in vivo, mouse; conditions: compared to control group
Experimental: (§2) As experimental animals, 20 of C57BL/6 male mice aged 6 weeks were used. The experimental animals were assigned to two groups: a control group, to which 10 mice having similar weights were assigned without administration, and an experimental group, to which 10 mice having similar weights were assigned with butylpyridinium chloride administration.
(§3) It was also administered continuously during the muscle immobilization periods described below.
(§4) In this experiment, as a method for inducing muscle regeneration in mice, the tibialis anterior muscle immobilization protocol was used. In this method, the thighs and shins of one leg of a mouse were fixed using a medical staple so that legs were immobilized, and after leaving the immobilized mouse alone for 3 days, the fixed leg was released. The principle used in this method is that when a leg is placed in a cast and the muscle of the leg is immobilized (i.e., not frequently used), the muscle is lost. It is a method for inducing muscle regeneration, in which, after the muscle loss due to immobilizing the shin muscle, the muscle is regenerated by releasing the immobilized muscle so that the muscle may move again. […]

[5] = tested on: C57BL/6 male mice, muscle immobilization model; assay: Treadmill test after tibialis anterior muscle immobilization; assay type: in vivo, mouse; conditions: compared to control group
Experimental: as §2, §3, §4

[6] = tested on: C57BL/6 male mice, muscle immobilization model; assay: Grip strength test after tibialis anterior muscle immobilization; assay type: in vivo, mouse; conditions: compared to control group
Experimental: as §2, §3
as §4, with “lost.” for “lost. It is a method for inducing muscle regeneration, in which, after the muscle loss due to immobilizing the shin muscle, the muscle is regenerated by releasing the immobilized muscle so that the muscle may move again.”
Grip strength was measured using a grip strength measuring instrument made by the company BIOSEB. The mouse was placed on a wire mesh attached to the instrument panel that can monitor the strength of a force, and the force of holding the wire mesh by the mouse while the tail was gripped downward was measured. […]

[7] = tested on: mouse immobilization model; assay: Muscle fiber cross-sectional area (Laminin staining of TA muscle) in mouse immobilization model; conditions: 1.7 mg/kg (mouse) oral, compared to control group; FIG. 12
Experimental: The separated muscle was cut to a thickness of 5 μM and stained by immunofluorescence using a Laminin antibody. […] By using the Laminin antibody, sections of the skeletal muscle fibers formed in the basement membrane were stained, and the cross-sectional area of the muscle fibers was measured (FIG. 12).

[8] = tested on: mouse immobilization model; assay: Skeletal muscle mass (muscle weight divided by body weight) in mouse immobilization model; assay type: in vivo; conditions: oral, concentration-dependent, 7 days after inducing regeneration; FIG. 11
Source text: Afterwards, an increase in the skeletal muscle mass due to the drug was confirmed by dividing the weight of the separated muscle by the body weight of the mouse (FIG. 11).

[9] = tested on: mouse immobilization model; assay: Motor ability by rota-rod and treadmill tests after concentration-dependent oral administration; conditions: FIG. 10
Experimental: The exercise was applied using a rota-rod device consisting of 6 partitions (with a diameter of 7 cm, at an interval of 15 cm) and a rotatable cylindrical bar (with a height of 60 cm).
For the treadmill used in this test, a self-manufactured device was used. After each mouse was placed in an isolated lane and made to run, the time from the starting point to a point when the mouse was exhausted (i.e., judged to have no will to run) was recorded. […] In this experiment, repeated experiments on the same mouse could not be performed. The mouse was placed on the device and was made to run at a speed of 8 rpm, the speed was accelerated by 2 rpm every 10 minutes up to a speed of 18 rpm, and starting with no inclination, the inclination was increased by 5 degrees every 30 minutes.

Compound | amount of MYH3 protein (Western blot) (C2C12 myoblast cell line [1]) | expression of MYH3 (immunocytochemistry) (C2C12 myoblast cell line [2]) | formation of myotubes (differentiation promoting effect) (C2C12 myoblast cell line [3]) | other results
CC[n+]1ccccc1.[Cl-] [ethylpyridinium chloride] | did not increase |  |  | 
CCCCCCCCCCCC[n+]1ccccc1 [dodecylpyridinium chloride] | significantly increased | very high | more myotubes were formed | 
CCCC[n+]1ccccc1 [butylpyridinium chloride] | significantly increased | very high | more myotubes were formed | motor ability to maintain the sense of balance (rota-rod) ([4]; 15 mg/kg oral, after muscle immobilization, FIG. 5): improved; endurance (treadmill) ([5]; 15 mg/kg oral, after muscle immobilization, FIG. 6): improved; range of decrease in grip strength after muscle immobilization ([6]; 15 mg/kg oral, 3 days immobilization, tested 7 days after release, FIG. 4): reduced
CCCCCCCCCCCCCCCC[n+]1ccccc1 [cetylpyridinium chloride] | significantly increased | very high | more myotubes were formed | motor ability to maintain the sense of balance (rota-rod) ([4]; 50 mg/kg oral for 2 weeks, FIG. 8): improved; endurance (treadmill) ([5]; 50 mg/kg oral for 2 weeks, FIG. 9): improved; range of decrease in grip strength after muscle immobilization ([6]; 50 mg/kg oral for 2 weeks, FIG. 7): reduced; cross-sectional area of the muscle (TA) [7]: increased; skeletal muscle mass of the EDL muscle [8]: increased; skeletal muscle mass of the gastrocnemius muscle [8]: increased; motor ability (rota-rod and treadmill tests) [9]: improved
CCCCCCCCCCCCCCCC[n+]1ccccc1 [cetylpyridinium bromide] | increased |  |  | 
